In paper PMC12010937, “Evaluation of FXR Activity in Pollutants Identified in Sewage Sludge and Subsequent in Vitro and in Vivo Characterization of Metabolic Effects of Triphenyl Phosphate” (Environmental Health Perspectives, 2025):
Several values for one entry are separate records, joined by “and”; a condition that tells them apart may be missing. Equal values may be shown once.

Experiments:
[1] = test system: FXR, PXR and PPARγ target genes in liver; experiment: qPCR of genes in mouse liver; assay type: in vivo, C57BL/6N mice
Experimental: Male C57BL/6N mice (8 wk of age) were purchased from Beijing Vital River Laboratory Inc. and acclimated to the environment for 2 wk before they were used for experiments. The environment was maintained at 22°C, in a 12-h light/dark cycle with 50%–60% relative humidity and fed standard chow diets. Because the male mice are more sensitive to metabolic disease than female mice and the estrous cycle of female mice may induce variability to the metabolic phenotypes,[50] only male mice were used in this study. Animals were randomly assigned to control or TPHP treatment groups (five mice per group). Mice were exposed to corn oil (control) purchased from Sigma-Aldrich (C8267) or TPHP (dissolved in corn oil) at 10mg/kg or 50mg/kg body weight (BW) by daily oral gavage for 35 d. The administered volume was 5mL/kg BW. The TPHP corn oil solutions for administration were prepared by dissolving the TPHP in corn oil, and the solutions were stored at −20°C and freshly prepared each week. BW was measured every other day during the dosing period. At the end of experiments, the mice were anesthetized with isoflurane, then blood was collected from the retro-orbital sinus via orbital puncture, and then the mice were euthanized by cervical dislocation. The liver was isolated, weighted, and divided into three fractions: one fraction was fixed with 4% neutral-buffered formalin for Oil Red staining; another fraction was frozen in liquid nitrogen and stored at −80°C for the BA targeted analysis, lipidomic analysis, and qPCR analysis; the remaining fraction was embedded with 3% carboxymethylcellulose (CMC) for MSI analysis. The ileum was also isolated, weighted, and stored at −80°C for the BA targeted analysis and qRT-PCR analysis. Cecal contents were collected from the cecum of mice for the 16S rRNA gene sequencing analysis. Animal study protocols were approved by the Animal Care and Use Committee of Peking University (approval number: Urban-WanY-1).
Total RNA was extracted from cells or mice tissues (liver and ileum) using the Total RNA kit (Tiangen Biotech), and concentration and quality of the RNA were determined using a SMA4000 Nanodrop spectrophotometer (Merinton). Then, the RNA was reverse transcribed into cDNA by HiScript III RT SuperMix for qPCR (Vazyme). In addition, qPCR was performed in the Mx3005P real-time PCR system (Agilent Technologies) with the ChamQ SYBR qPCR Master Mix Kit (Vazyme). Reactions were carried out for 5 min at 95°C, followed by 40 cycles of two-step PCR for 10 s at 95°C and 30 s at 60°C. The relative RNA expression levels of the target genes were normalized to GAPDH using the 2^−ΔΔCt method.

[2] = target: T1, human FXR-LBD (6His-FXR-LBD) (Homo sapiens, UniProt Q96RI1); experiment: Surface plasmon resonance (SPR) analysis; assay type: binding
T1 construct: human FXR (residues 243–472) was expressed and purified as an amino-terminal 6His fusion protein; made in house; host or cells: E. coli BL21(DE3)
T1 sequence (Q96RI1 243-472 isoform Q96RI1-2): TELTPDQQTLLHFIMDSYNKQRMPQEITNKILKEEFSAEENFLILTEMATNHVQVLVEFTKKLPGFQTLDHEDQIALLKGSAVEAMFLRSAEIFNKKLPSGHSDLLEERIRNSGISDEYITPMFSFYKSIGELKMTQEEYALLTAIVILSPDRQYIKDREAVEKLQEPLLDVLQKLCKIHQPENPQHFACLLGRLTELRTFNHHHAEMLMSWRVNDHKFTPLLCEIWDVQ
Experimental: . First, 40μg/mL purified 6His-FXR-LBD protein was immobilized on a CM5 sensor chip (29149603; Cytiva) by amine coupling reaction. In detail, the carboxymethyl dextran surface of the CM5 sensor chip was activated by injecting a 1:1 mixture of 0.4M 1-ethyl-3-(3-dimethylaminopropyl)-carbodiimide (EDC) and 0.1M N-hydroxysuccinimide (NHS) for 7 min, then the 6His-FXR-LBD protein was injected and immobilized on the activated surface for 5 min, and subsequently the excess activated groups on the surface were deactivated by 1.0M ethanolamine (pH 8.5). Then, seven different concentrations of compounds (including 3.125μM , 6.25μM , 12.5μM , 25μM , 50μM , 100μM , and 200μM ) were prepared with HBS-EP buffer [ 10 mM HEPES, 150 mM NaCl, 3 mM EDTA, 0.005% (v/v) surfactant P20, pH 7.4], and the final DMSO concentration was adjusted to 2%. The samples were injected into the chip at a flow rate of 30μL/min for 60 s, followed by dissociation for 120 s at 25°C. One of the flow cells on the chip without FXR-LBD protein was used as a negative control. The responses were recorded during the experiment, and the sensorgrams were obtained by subtracting the binding response of the negative control. The equilibrium dissociation constant (KD) was determined by steady-state fitting mode with Biacore T200 Evaluation Software (version 3.2; Cytiva).

[3] = test system: FXR target genes (SHP, NTCP, CYP7A1) in HepG2 cells; experiment: qPCR of FXR target genes in HepG2 cells; assay type: cell-based, human
[4] = 10 μM TPHP + 50 μM CDCA, replicates

For `O=P(Oc1ccccc1)(Oc1ccccc1)Oc1ccccc1` [TPHP, triphenyl phosphate], the “Relative mRNA expression of Acc1 in liver” value ([1]; TPHP-H: 50 mg/kg, 35 d) was 1.30 fold changes and 1.85 fold changes and 1.75 fold changes, the “Relative mRNA expression of Acly in liver” value ([1]; TPHP-H: 50 mg/kg, 35 d) was 1.31 fold changes and 1.49 fold changes and 1.68 fold changes and the “Relative mRNA expression of Bsep in liver” value ([1]; TPHP-H: 50 mg/kg, 35 d) was 0.59 fold changes and 0.34 fold changes and 0.54 fold changes. The “Relative mRNA expression of Cd36 in liver” value ([1]; TPHP-H: 50 mg/kg, 35 d) was 0.97 fold changes and 1.09 fold changes and 0.65 fold changes, the “Relative mRNA expression of Cpt1a in liver” value ([1]; TPHP-H: 50 mg/kg, 35 d) was 0.75 fold changes and 0.89 fold changes and 1.31 fold changes and the “Relative mRNA expression of Cyp2b10 in liver” value ([1]; TPHP-H: 50 mg/kg, 35 d) was 1.32 fold changes and 0.97 fold changes and 0.68 fold changes. The “Relative mRNA expression of Cyp3a11 in liver” value ([1]; TPHP-H: 50 mg/kg, 35 d) was 0.93 fold changes and 0.74 fold changes and 0.82 fold changes, the “Relative mRNA expression of Cyp7a1 in liver” value ([1]; TPHP-H: 50 mg/kg, 35 d) was 2.89 fold changes and 2.77 fold changes and 3.66 fold changes and the “Relative mRNA expression of Cyp7b1 in liver” value ([1]; TPHP-H: 50 mg/kg, 35 d) was 1.54 fold changes and 0.80 fold changes and 0.81 fold changes. For the same compound, the “Relative mRNA expression of Cyp8b1 in liver” value ([1]; TPHP-H: 50 mg/kg, 35 d) was 1.26 fold changes and 1.33 fold changes and 0.86 fold changes, the “Relative mRNA expression of Cyp27a1 in liver” value ([1]; TPHP-H: 50 mg/kg, 35 d) was 0.93 fold changes and 1.23 fold changes and 1.03 fold changes and the “Relative mRNA expression of Dgat2 in liver” value ([1]; TPHP-H: 50 mg/kg, 35 d) was 1.67 fold changes and 1.99 fold changes and 1.63 fold changes. For the same compound, the “Relative mRNA expression of Fae in liver” value ([1]; TPHP-H: 50 mg/kg, 35 d) was 1.30 fold changes and 0.87 fold changes and 0.66 fold changes, the “Relative mRNA expression of Hmgcs2 in liver” value ([1]; TPHP-H: 50 mg/kg, 35 d) was 0.85 fold changes and 0.69 fold changes and 1.21 fold changes and the “Relative mRNA expression of Mdr3 in liver” value ([1]; TPHP-H: 50 mg/kg, 35 d) was 0.80 fold changes and 0.96 fold changes and 0.74 fold changes. The “Relative mRNA expression of Mrp2 in liver” value ([1]; TPHP-H: 50 mg/kg, 35 d) was 0.83 fold changes and 0.55 fold changes and 0.76 fold changes, the “Relative mRNA expression of Mrp3 in liver” value ([1]; TPHP-H: 50 mg/kg, 35 d) was 1.11 fold changes and 0.88 fold changes and 0.87 fold changes and the “Relative mRNA expression of Mrp4 in liver” value ([1]; TPHP-H: 50 mg/kg, 35 d) was 0.96 fold changes and 0.80 fold changes and 0.67 fold changes. For the same compound, the “Relative mRNA expression of Ntcp in liver” value ([1]; TPHP-H: 50 mg/kg, 35 d) was 1.19 fold changes and 1.58 fold changes and 1.51 fold changes, the “Relative mRNA expression of Scd1 in liver” value ([1]; TPHP-H: 50 mg/kg, 35 d) was 0.43 fold changes and 0.64 fold changes and 0.58 fold changes and the “Relative mRNA expression of Srebp1c in liver” value ([1]; TPHP-H: 50 mg/kg, 35 d) was 2.82 fold changes and 2.12 fold changes and 2.38 fold changes. For the same compound, the “Relative mRNA expression of Acc1 in liver” value ([1]; TPHP-L: 10 mg/kg, 35 d) was 1.60 fold changes and 1.11 fold changes and 0.88 fold changes, the “Relative mRNA expression of Acly in liver” value ([1]; TPHP-L: 10 mg/kg, 35 d) was 1.63 fold changes and 1.57 fold changes and 1.51 fold changes and the “Relative mRNA expression of Bsep in liver” value ([1]; TPHP-L: 10 mg/kg, 35 d) was 0.72 fold changes and 0.48 fold changes and 0.41 fold changes. The “Relative mRNA expression of Cd36 in liver” value ([1]; TPHP-L: 10 mg/kg, 35 d) was 1.18 fold changes and 0.78 fold changes and 1.04 fold changes, the “Relative mRNA expression of Cpt1a in liver” value ([1]; TPHP-L: 10 mg/kg, 35 d) was 0.92 fold changes and 1.04 fold changes and 0.99 fold changes and the “Relative mRNA expression of Cyp3a11 in liver” value ([1]; TPHP-L: 10 mg/kg, 35 d) was 1.21 fold changes and 0.78 fold changes and 0.67 fold changes. The “Relative mRNA expression of Cyp7b1 in liver” value ([1]; TPHP-L: 10 mg/kg, 35 d) was 0.65 fold changes and 1.07 fold changes and 0.98 fold changes, the “Relative mRNA expression of Cyp8b1 in liver” value ([1]; TPHP-L: 10 mg/kg, 35 d) was 1.44 fold changes and 1.13 fold changes and 0.80 fold changes and the “Relative mRNA expression of Cyp27a1 in liver” value ([1]; TPHP-L: 10 mg/kg, 35 d) was 1.02 fold changes and 1.04 fold changes and 0.92 fold changes. For the same compound, the “Relative mRNA expression of Dgat2 in liver” value ([1]; TPHP-L: 10 mg/kg, 35 d) was 1.22 fold changes and 1.92 fold changes and 1.34 fold changes, the “Relative mRNA expression of Fae in liver” value ([1]; TPHP-L: 10 mg/kg, 35 d) was 1.41 fold changes and 0.87 fold changes and 0.80 fold changes and the “Relative mRNA expression of Hmgcs2 in liver” value ([1]; TPHP-L: 10 mg/kg, 35 d) was 0.83 fold changes and 1.02 fold changes and 0.93 fold changes. The “Relative mRNA expression of Mdr3 in liver” value ([1]; TPHP-L: 10 mg/kg, 35 d) was 1.09 fold changes and 0.85 fold changes and 0.67 fold changes, the “Relative mRNA expression of Mrp2 in liver” value ([1]; TPHP-L: 10 mg/kg, 35 d) was 0.71 fold changes and 1.09 fold changes and 0.57 fold changes and the “Relative mRNA expression of Mrp3 in liver” value ([1]; TPHP-L: 10 mg/kg, 35 d) was 0.90 fold changes and 0.72 fold changes and 0.89 fold changes. For the same compound, the “Relative mRNA expression of Mrp4 in liver” value ([1]; TPHP-L: 10 mg/kg, 35 d) was 0.86 fold changes and 0.84 fold changes and 0.91 fold changes, the “Relative mRNA expression of Ntcp in liver” value ([1]; TPHP-L: 10 mg/kg, 35 d) was 1.52 fold changes and 1.66 fold changes and 1.26 fold changes and the “Relative mRNA expression of Scd1 in liver” value ([1]; TPHP-L: 10 mg/kg, 35 d) was 0.40 fold changes and 0.59 fold changes and 0.35 fold changes. The “Relative mRNA expression of Srebp1c in liver” value ([1]; TPHP-L: 10 mg/kg, 35 d) was 2.35 fold changes and 1.89 fold changes and 2.01 fold changes, the “Expression of FXR-regulated lipogenesis genes (Srebp1c, Dgat2, Acly, Acc1) in liver (in words)” value ([1]; TPHP-exposed mice) was “up-regulated” and the “Expression of Scd1 in the liver (in words)” value ([1]; TPHP-exposure groups) was “significantly lower”. The “Expression of PXR and PPARγ target genes in the liver, except Scd1 (in words)” value ([1]; after TPHP exposure) was “not significantly different”, the “Expression of Cyp7a1 in liver, higher than in control group” value ([1]; both TPHP-L and TPHP-H groups) was “approximately 2 folds” and the “Response (RU)” value ([2]; 3.13 μM TPHP) was 1.43 RU. For the same compound, the “Response (RU)” value ([2]; 6.25 μM TPHP) was 1.99 RU, the “Response (RU)” value ([2]; 12.5 μM TPHP) was 3.33 RU and the “Response (RU)” value ([2]; 25 μM TPHP) was 6.18 RU. For the same compound, the “Response (RU)” value ([2]; 50 μM TPHP) was 11.56 RU, the “Response (RU)” value ([2]; 100 μM TPHP) was 20.62 RU and the “Response (RU)” value ([2]; 200 μM TPHP) was 25.20 RU. The “Effect on CDCA-induced expression changes of FXR target genes (SHP, NTCP, CYP7A1), in words” value [3] was “attenuated the CDCA-induced expression changes”, the “Relative mRNA expression level of CYP7A1” value [3, 4] was 1.85 fold changes and 1.10 fold changes and 1.48 fold changes and the “Relative mRNA expression level of NTCP” value [3, 4] was 1.11 fold changes and 0.92 fold changes and 0.94 fold changes. The “Relative mRNA expression level of SHP” value [3, 4] was 1.02 fold changes and 1.19 fold changes and 1.08 fold changes.
